{"source": "patent US20230077811A1", "about": "“ACTIVATION OF NEUROPEPTIDE RECEPTORS ON PLASMACYTOID DENDRITIC CELLS TO TREAT OR PREVENT OCULAR DISEASES ASSOCIATED WITH NEOVASCULARIZATION AND INFLAMMATION” (Tufts Medical Center, Inc., priority 2020, published 2023)", "key": {"murine pDCs": {"test_system": "murine pDCs", "assay": "Flow cytometry of murine pDCs incubated with THIQ for angiostatic proteins", "assay_type": "cell-based", "conditions": "THIQ 10 ug/mL"}, "human corneal pDCs": {"test_system": "human corneal pDCs", "assay": "Flow cytometry of human corneal pDCs incubated with THIQ for angiostatic proteins", "assay_type": "cell-based", "conditions": "THIQ 10 ug/mL", "from_the_text": "Phenotypically murine and human pDCs express divergent sets of surface markers as reviewed by Rogers et al. (Rogers et al., Am. J. Transplant. 13:1125-1133, 2013). Human pDCs express the pan leukocyte marker CD45, BDCA2 (CD303), and BDCA4 (neuropilin-1). To examine the possibility that murine but not human pDCs express angiostatic molecules, human corneal eye bank research samples for ES, PF-4, TSP-1 and TIMP3 were examined. Human corneal tissues were obtained and processed by […] Eyebank (Ann Arbor, Mich., USA) according to a standardized eye banking protocols, and procedures. […] The exclusion criterion was tissue from donors with corneal neovascularization, or a history of diabetes, cancer, or keratitis. […] Pharmacol. Toxicol. 101:416-420, 2007; Sebhat et al., J. Med. Chem. 45:4589-4593, 2002) was utilized. The ability of THIQ (10 ug/mL) to impact murine and human pDCs was tested."}, "suture induced CNV": {"test_system": "suture induced CNV", "assay": "Suture induced model of corneal neovascularization (CNV), CD31 whole mount quantification", "assay_type": "in vivo, C57BL/6 mice"}, "[1]": {"test_system": "CNV in C57BL/6 to BALB/c corneal transplants", "assay": "High-risk corneal transplant model (C57BL/6 to BALB/c), CNV quantified by CD31 staining", "assay_type": "in vivo, BALB/c mice", "conditions": "subconjunctival THIQ (10 ug/mL) every other day for 14 days, versus saline"}, "[2]": {"test_system": "phospho-PKCδ/θ (Ser643/676)", "assay": "Immunoblot of PKC isoform phosphorylation in FACS-sorted pDCs treated with THIQ", "assay_type": "cell-based, murine", "protocol": "Previous studies have shown the MC4 receptor to couple to all three major classes of G proteins, Gs, Gi/o, and Gq depending on cell type (Tao, Endocr. Rev. 31:506-543, 2010). To test pDC MC4 signaling, FACS-sorted pDCs were incubated with THIQ (10 ug/mL) for 5, 15, or 30 minutes. Protein kinase C (PKC) isoform phosphorylation was examined by phospho-PKC specific antibodies and immunoblotting. Specifically, Splenic pDCs were FACs sorted as previously described. Five hundred thousand pDCs were used per condition and lysed directly with chilled 1× radioimmunoprecipitation assay (RIPA) buffer or 1× Laemmli Buffer on ice. Samples were diluted in NuPAGE sample loading buffer (ThermoFisher) and 1× NuPAGE Sample Reducing Agent (ThermoFisher) and heated to 70° C. for 10 minutes. Protein lysates were resolved on a 10% Bis-Tris SDS gel (ThermoFisher) and transferred to a nitrocellulose membrane (ThermoFisher). Membranes were blocked with odyssey blocking buffer (Licor) for one hour and incubated with protein specific primary antibodies (1:100 or 1:200) overnight at 4° C. Membranes were washed with blocking buffer and secondary antibodies were diluted (1:5000 or 1:15000) and incubated with membranes for 60 minutes at room temperature. Membranes were imaged using an Odyssey® CLx Imaging System (Licor). Image analysis was done using Image Studio software. Protein sampling kits for PKC, and NF-κB signaling antibodies were purchased from Cell signaling (Phospho-PKC Antibody Sampler Kit #9921 and NF-κB Pathway Sampler Kit #9936)."}, "NF-kB": {"test_system": "NF-kB", "assay": "Immunofluorescence of NF-kB (RelB, c-Rel) nuclear localization in sorted pDCs treated with THIQ", "assay_type": "cell-based, murine", "conditions": "THIQ 10 ug/mL, 24 hours, compared to control pDCs"}, "splenic pDCs": {"test_system": "splenic pDCs", "assay": "Flow cytometry of splenic pDCs for ES and TSP-1 after 24 hours with neuropeptide receptor agonists", "assay_type": "cell-based, C57BL/6 mice"}}, "note": "Where two headings read alike, the source gives them in different places.", "data": [{"compound": "O=C(N[C@H](Cc1ccc(Cl)cc1)C(=O)N1CCC(Cn2cncn2)(C2CCCCC2)CC1)[C@H]1Cc2ccccc2CN1", "note": "[THIQ, (3R)—N-[(2R)-3-(4-chlorophenyl)-1-[4-cyclohexyl-4-(1,2,4-triazol-1-ylmethyl)piperidin-1-yl]-1-oxopropan-2-yl]-1,2,3,4-tetrahydroisoquinoline-3-carboxamide]", "values": [{"measurement": "ES mean fluorescence intensity (MFI)", "setting": "murine pDCs", "value": "increased"}, {"measurement": "PF4 mean fluorescence intensity (MFI)", "setting": "murine pDCs", "value": "increased"}, {"measurement": "TIMP3 mean fluorescence intensity (MFI)", "setting": "murine pDCs", "value": "increased"}, {"measurement": "TSP-1 mean fluorescence intensity (MFI)", "setting": "murine pDCs", "value": "increased"}, {"measurement": "ES mean fluorescence intensity (MFI)", "setting": "human corneal pDCs", "value": "increased"}, {"measurement": "PF4 mean fluorescence intensity (MFI)", "setting": "human corneal pDCs", "value": "increased"}, {"measurement": "TIMP3 mean fluorescence intensity (MFI)", "setting": "human corneal pDCs", "value": "increased"}, {"measurement": "TSP-1 mean fluorescence intensity (MFI)", "setting": "human corneal pDCs", "value": "increased"}, {"measurement": "Reduction of suture induced CNV", "setting": "suture induced CNV; subconjunctival injection of THIQ (10 ug/mL) every other day for 14 days, versus saline", "value": 46, "unit": "%"}, {"measurement": "CNV, MC4 siRNA with THIQ versus control siRNA", "setting": "suture induced CNV; sutured C57BL/6, injected every other day for two weeks, THIQ together with siRNA against MC4", "value": "No statistical difference"}, {"measurement": "CNV in corneal transplants", "setting": "[1]", "value": "reduced"}, {"measurement": "Phosphorylation of additional PKC isoforms", "setting": "[2]; THIQ 10 ug/mL, 5, 15 or 30 minutes", "value": "not observed"}, {"measurement": "PKCδ/θ (Ser643/676) phosphorylation", "setting": "[2]; THIQ 10 ug/mL, 15 minutes, normalized to actin", "value": "decreased"}, {"measurement": "PKCδ/θ (Ser643/676) phosphorylation", "setting": "[2]; THIQ 10 ug/mL, 30 minutes, normalized to actin", "value": "decreased"}, {"measurement": "phospho-PKCδ/θ (Ser643/676) phosphorylation", "setting": "[2]; THIQ 10 ug/mL, five minutes, normalized to actin", "value": "Increased"}, {"measurement": "RelB nuclear localization", "setting": "NF-kB", "value": "Increased"}, {"measurement": "c-Rel nuclear localization", "setting": "NF-kB", "value": "not"}]}, {"compound": "COC(=O)[C@H](CCCN=C(N)N)NC(=O)CCCc1c(-c2ccccc2)[nH]c2c(F)cc(F)cc12", "note": "[L-803,087]", "values": [{"measurement": "pDC ES protein expression", "setting": "splenic pDCs; 24 hours, compared to baseline", "value": "mixed impact"}, {"measurement": "pDC TSP-1 protein expression", "setting": "splenic pDCs; 24 hours, compared to baseline", "value": "mixed impact"}]}, {"compound": "Dynorphin A", "values": [{"measurement": "pDC ES protein expression", "setting": "splenic pDCs", "value": "increased"}, {"measurement": "pDC TSP-1 protein expression", "setting": "splenic pDCs", "value": "increased"}]}]}
